Reference: ChEMBL document CHEMBL6134860, “Discovery and optimization of a novel carboxamide scaffold with selective antimalarial activity” (Eur J Med Chem, 2025)
pEC50: −log10 of the molar value.

Tests used:
Plasmodium falciparum = experiment: microbe, parasite or virus in culture; format: functional, organism-based; conditions: W2, 72 h; for pEC50: read-out: EC50; for EC50: read-out: pEC50 (converted)
[1] = Cytotoxicity against human HepG2 cells measured after 72 hrs by hoechst 33342 staining based imaging assay; format: toxicity, cell-based

Structure (SMILES)	pEC50 (Plasmodium falciparum)	EC50 (Plasmodium falciparum) [µM]	CC50 at 72 h ([1]; read-out: CC50) [µM]	CC50 at 72 h ([1]; read-out: pCC50 (converted)) [µM]
O=C(c1ccc(Cl)cc1)c1ncc(-c2ccc(Cl)cc2)o1	< 2.00	> 10	> 10	> 10
Cc1ccc(N(C)C(=O)c2ncn(-c3ccc(C(C)C)cc3)n2)cc1		0.741	> 10	> 10
CN(C(=O)c1cn(-c2ccc(Cl)cc2)nn1)c1ccc(Cl)cc1	< 5.00	> 10	> 10	> 10
Cc1ccc(-c2nc(C)c(C(=O)N(C)c3ccc(Cl)cc3)o2)cc1	< 5.05	> 8.91	> 10	> 10
Cc1nc(-c2ccc(Cl)cc2)oc1C(=O)N(C)c1ccc(Cl)cc1	< 5.36	> 4.37	> 10	> 10
O=C(Nc1ccc(Cl)cc1)c1ncn(-c2ccc(Cl)cc2)n1	< 5.19	> 6.46	> 10	> 10
Cc1ccc(C(=O)N(C)c2ncn(-c3ccc(Cl)cc3)n2)cc1		4.27	> 10	> 10
COc1ccc(-n2cnc(C(=O)N(C)c3ccc(Cl)cc3)n2)cc1	< 5.41	> 3.89	> 10	> 10
CN(C(=O)c1ncn(-c2ccc(Cl)cc2)n1)c1ccc(C(F)(F)F)cc1		3.8	> 6.93	> 6.92
CCc1ccc(-n2cnc(C(=O)N(C)c3ccc(Cl)cc3)n2)cc1		0.617	> 10	> 10
O=C(c1ccc(Cl)cc1)c1cc(-c2ccc(Cl)cc2)ccn1	< 2.00	> 10	> 10	> 10
Cc1ccc(-c2ncc(C(=O)N(C)c3ccc(Cl)cc3)s2)cc1	< 5.00	> 10	> 10	> 10
Cc1ccc(-n2cnc(C(=O)N(C)c3ccc(C)c(C)c3)n2)cc1	< 5.16	> 6.92	> 10	> 10
O=C(Nc1ccc(Cl)c(Cl)c1)c1ncn(-c2ccc(Cl)cc2)n1	< 5.00	> 10	> 10	> 10
CN(C(=O)c1ccc(Cl)cc1)c1ncn(-c2ccc(Cl)cc2)n1	< 5.82	> 1.51	> 10	> 10
CN(C(=O)c1ncn(-c2ccc(Cl)cc2)n1)c1ccc([N+](=O)[O-])cc1		2.29	> 10	> 10
O=C(Nc1ccc(-c2cc3ccccc3oc2=O)cc1)c1cccc2ccccc12	< 5.39	> 4.07	1.16	1.15
O=C(Nc1ccc(F)cc1)c1ncn(-c2ccc(Cl)cc2)n1	< 5.23	> 5.89	> 10	> 10
Cc1cccc(N(C)C(=O)c2ncn(-c3ccc(C(C)C)cc3)n2)c1	< 5.48	> 3.31	> 10	> 10
Cc1ccc(C(=O)Nc2ncn(-c3ccc(Cl)cc3)n2)cc1	< 5.00	> 10	> 10	> 10
Cc1ccc(-c2cnc(C(=O)N(C)c3ccc(Cl)cc3)[nH]2)cc1	< 5.00	> 10	> 10	> 10

Structure (SMILES)	pEC50 (Plasmodium falciparum)	EC50 (Plasmodium falciparum) [µM]	CC50 at 72 h ([1]; read-out: CC50) [µM]	CC50 at 72 h ([1]; read-out: pCC50 (converted)) [µM]
CN(C(=O)c1cncc(-c2ccc(Cl)cc2)c1)c1ccc(Cl)cc1			> 10	> 10
CN(C(=O)c1ncn(-c2ccc(Cl)cc2)n1)c1ccccc1	< 4.86	> 13.8	> 10	> 10
CN(C(=O)c1ncn(-c2ccc(Cl)cc2)n1)c1ccc(F)cc1		1.78	> 10	> 10
CC(=O)c1ccc(NC(=O)c2ncn(-c3ccc(Cl)cc3)n2)cc1	< 5.00	> 10	> 10	> 10
Cc1ccc(-n2cnc(C(=O)N(C)c3ccc(Cl)cc3)n2)cc1	5.77	1.7	> 10	> 10
Cc1ccc(-c2cnc(C(=O)N(C)c3ccc(Cl)cc3)o2)cc1		0.676	> 10	> 10
Cc1ccc(N(C)C(=O)c2cn(-c3ccc(C)cc3)nn2)cc1	< 5.00	> 10	> 10	> 10
O=C(Nc1ccc(C(F)(F)F)cc1)c1ncn(-c2ccc(Cl)cc2)n1	< 5.19	> 6.46	> 10	> 10
O=C(Nc1ncn(-c2ccc(Cl)cc2)n1)c1ccc(Cl)cc1		3.09	> 10	> 10
Cc1ccc(N(C)C(=O)c2ncn(-c3ccc(C(C)C)cc3)n2)cc1C	< 5.41	> 3.89	> 10	> 10
COc1ccc(-n2cnc(C(=O)N(C)c3ccc(C)cc3)n2)cc1		5.75	> 10	> 10
Cc1ccc(-c2ccnc(C(=O)N(C)c3ccc(Cl)cc3)c2)cc1		0.49	> 10	> 10
Cc1ccc(-n2cnc(C(=O)Nc3ccc(Cl)cc3)n2)cc1	< 5.00	> 10	> 10	> 10
CN(C(=O)c1cnc(-c2ccc(Cl)cc2)s1)c1ccc(Cl)cc1	< 5.00	> 10	> 10	> 10
O=C1c2sc(-c3ccc(Cl)cc3)nc2CN1c1ccc(Cl)cc1	< 5.00	> 10	> 10	> 10
CC(C)c1ccc(-n2cnc(C(=O)N(C)c3ccc(Cl)cc3)n2)cc1		0.851	> 10	> 10
Cc1ccc(C(=O)Nc2ncn(-c3ccc(C)cc3)n2)cc1		2.51	> 10	> 10
COc1ccc(-n2cnc(C(=O)N(C)c3ccc(C)c(C)c3)n2)cc1	< 5.00	> 10	> 10	> 10
Cc1ccc(-n2cnc(NC(=O)c3ccc(Cl)cc3)n2)cc1	< 5.52	> 3.02	> 10	> 10
COc1ccc(-n2cnc(C(=O)N(C)c3cccc(C)c3)n2)cc1	< 5.24	> 5.75	> 10	> 10
CN(C(=O)c1ncc(-c2ccc(Cl)cc2)s1)c1ccc(Cl)cc1	< 5.17	> 6.76	> 10	> 10

Structure (SMILES)	pEC50 (Plasmodium falciparum)	EC50 (Plasmodium falciparum) [µM]	CC50 at 72 h ([1]; read-out: CC50) [µM]	CC50 at 72 h ([1]; read-out: pCC50 (converted)) [µM]
CN(C(=O)c1cc(-c2ccc(Cl)cc2)ccn1)c1ccc(Cl)cc1	6.77	0.17		
Cc1ccc(-n2cc(C(=O)N(C)c3ccc(Cl)cc3)nn2)cc1	< 5.00	> 10	> 10	> 10
CN(C(=O)c1ncc(-c2ccc(Cl)cc2)[nH]1)c1ccc(Cl)cc1	< 5.15	> 7.08	> 10	> 10
CN(C(=O)c1ncn(-c2ccc(Cl)cc2)n1)c1ccc(C(C)(C)C)cc1	< 5.10	> 7.94	> 1.76	> 1.78
Cc1ccc(-c2nc(C)c(C(=O)N(C)c3ccc(Cl)cc3)s2)cc1	< 5.32	> 4.79	> 10	> 10
Cc1ccc(C(=O)N(C)c2ncn(-c3ccc(C)cc3)n2)cc1	< 5.47	> 3.39	> 10	> 10
[2H]C([2H])([2H])N(C(=O)c1ncc(-c2ccc(Cl)cc2)o1)c1ccc(Cl)cc1	3.41	0.389		
Cc1ccc(-n2cnc(C(=O)N(C)c3cccc(C)c3)n2)cc1	< 5.55	> 2.82	> 10	> 10
Cc1ccc(NC(=O)c2ncn(-c3ccc(Cl)cc3)n2)cc1C	< 5.54	> 2.88	> 10	> 10
COc1ccc(C[C@H](N)C(=O)N[C@H]2[C@@H](O)[C@H](n3cnc4c(N(C)C)ncnc43)O[C@@H]2CO)cc1 [PUROMYCIN]		0.0631		0.646
COc1ccc(N(C)C(=O)c2ncn(-c3ccc(C)cc3)n2)cc1	< 5.39	> 4.07	> 10	> 10
COc1ccc(N(C)C(=O)c2ncn(-c3ccc(C(C)C)cc3)n2)cc1		1.62	> 10	> 10
Cc1ccc(N(C)C(=O)c2ncn(-c3ccc(Cl)cc3)n2)cc1C		2.34	> 10	> 10
COc1ccc(N(C)C(=O)c2ncn(-c3ccc(Cl)cc3)n2)cc1		1.91	> 10	> 10
CCc1ccc(-n2cnc(C(=O)N(C)c3cccc(C)c3)n2)cc1	< 5.37	> 4.27	> 10	> 10
CCc1ccc(NC(=O)c2ncn(-c3ccc(Cl)cc3)n2)cc1	< 5.16	> 6.92	> 10	> 10
CN(C(=O)c1cnc(-c2ccc(Cl)cc2)o1)c1ccc(Cl)cc1	< 5.00	> 10	> 10	> 10
CCc1ccc(-n2cnc(C(=O)N(C)c3ccc(C)cc3)n2)cc1		0.575	> 10	> 10
Cc1ccc(-c2ncc(C(=O)N(C)c3ccc(Cl)cc3)[nH]2)cc1		3.39	> 10	> 10
Cc1ccc(N(C)C(=O)c2cn(-c3ccc(Cl)cc3)nn2)cc1	< 5.00	> 10	> 10	> 10
CCc1ccc(N(C)C(=O)c2ncn(-c3ccc(Cl)cc3)n2)cc1	< 5.28	> 5.25	> 10	> 10
